Tested on: patients with prior myocardial infarction (CARE study)
Assay: CARE: association of SNPs with pravastatin treatment in RMI prevention (genotypic RR in placebo and statin strata; Table 10)
Assay type: in vivo, human
Text: In order to identify genetic markers associated with acute coronary events (e.g. MI, stroke, unstable angina, congestive heart failure, etc.) or response to statin treatment for the prevention of coronary events, samples from the Cholesterol and Recurrent Events (CARE) study (a randomized multicentral double-blinded trial on secondary prevention of acute coronary events with pravastatin) (Sacks et al., 1991, Am. J. Cardiol. 68: 1436-1446) were genotyped. A well-documented myocardial infarction (MI) was one of the enrollment criteria for entry into the CARE study. Patients were enrolled in the CARE trial from 80 participating study centers. […] Patients were randomized to receive either 40 mg of pravastatin once daily or a matching placebo. The primary endpoint of the trial was death from coronary heart disease and the median duration of follow-up was 5.0 years (range, 4.0 to 6.2 years). […] Secondary endpoints of other related cardiovascular or metabolic disease events, and changes in clinical variables were also recorded in pravastatin-treated and placebo groups. All individuals included in the study had signed a written informed consent form and the study protocol was approved by the respective Institutional Review Boards (IRBs).
For genotyping SNPs in CARE patient samples, DNA was extracted from blood samples using conventional DNA extraction methods such as the QIA-amp kit from Qiagen. Genotypes were obtained on an ABI PRISM® 7900HT Sequence Detection PCR system (Applied Biosystems, Foster City, Calif.) by kinetic allele-specific PCR, similar to the method described by Germer et al. (Germer S., Holland M. J., Higuchi R. 2000, Genome Res. 10: 258-266).
For statistical analysis of association of SNPs with pravastatin treatment in RMI prevention (Table 10), effect sizes were estimated through genotypic RR, including 95% CIs. Homogeneity of Cochran-Mantel-Haenszel odds ratios was tested across pravastatin and placebo strata using the Wald test. […] (this adjustment supports independence of the SNP association from conventional risk factors). This table also provides the frequency data for the at risk allele in the columns labeled “Case Y PRIMER ALLELE Nucleotide Frequency” and “Control Y PRIMER ALLELE Nucleotide Frequency”. Allele frequencies for the cases and controls ≤0.49 indicate that the at-risk allele is the minor allele. Allele frequencies ≥0.50 indicate that the at-risk allele is the major allele. An example of a SNP associated with increased risk for an adverse cardiovascular event in the placebo group using a dominant genotypic test is hCV25644901. […] However, this same SNP was protective in the statin treated group with a RR of 0.58. An example of a SNP associated with an adverse cardiovascular event in the placebo group using the allelic association test is hCV16044337 with a RR of 1.87 for the homozygous AA genotype. This same genotype was protective in the statin treated group with a RR of 0.56.

**Q.** How did the “RR (relative risk for RMI)” value (ABCA1 hCV2741051, Het(TC) stratum, Statin vs Placebo) turn out when `CC[C@H](C)C(=O)O[C@H]1C[C@H](O)C=C2C=C[C@H](C)[C@H](CC[C@@H](O)C[C@@H](O)CC(=O)O)[C@H]21` [pravastatin] was run?
**A.** 0.92

**Q.** And the “RR (relative risk for RMI)” value (ABCA1 hCV2741051, Maj Hom(CC) stratum, Statin vs Placebo)?
**A.** 0.59

**Q.** What about the “RR (relative risk for RMI)” value (ABCA1 hCV2741051, Min Hom(TT) stratum, Statin vs Placebo) of the same compound?
**A.** 1.25

**Q.** And the “RR (relative risk for RMI)” value (ABCA1 hCV2741051, Statin stratum, het(TC) vs. ref(CC))?
**A.** 1.09

**Q.** What about the “RR (relative risk for RMI)” value (ABCA1 hCV2741051, Statin stratum, hom(TT) vs. ref(CC)) of the same compound?
**A.** 1.14

**Q.** And the “RR (relative risk for RMI)” value (ABCA1 hCV2741083, Het(TC) stratum, Statin vs Placebo, covars none)?
**A.** 1.51

**Q.** What about the “RR (relative risk for RMI)” value (ABCA1 hCV2741083, Maj Hom(TT) stratum, Statin vs Placebo, covars none) of the same compound?
**A.** 0.61

**Q.** What about the “RR (relative risk for RMI)” value (ABCA1 hCV2741083, Min Hom(CC) stratum, Statin vs Placebo, covars none) of the same compound?
**A.** 1.36

**Q.** And the “RR (relative risk for RMI)” value (ABCA1 hCV2741083, Statin stratum, het(TC)vs. ref(TT), covars none)?
**A.** 1.29

**Q.** And the “RR (relative risk for RMI)” value (ABCA1 hCV2741083, Statin stratum, hom (CC)vs. ref(TT), covars none)?
**A.** 1.00

**Q.** And the “RR (relative risk for RMI)” value (ATF6 hCV25631989, Het (TC) stratum, Statin vs Placebo)?
**A.** 2.43

**Q.** What about the “RR (relative risk for RMI)” value (ATF6 hCV25631989, Maj Hom (CC) stratum, Statin vs Placebo) of the same compound?
**A.** 0.66

**Q.** What about the “RR (relative risk for RMI)” value (ATF6 hCV25631989, Statin stratum, het(TC) vs. ref (CC)) of the same compound?
**A.** 1.53

**Q.** And the “RR (relative risk for RMI)” value (CYBA hCV2038, Het(AG) stratum, Statin vs Placebo, covars hx_smoke)?
**A.** 0.74

**Q.** What about the “RR (relative risk for RMI)” value (CYBA hCV2038, Maj Hom(GG) stratum, Statin vs Placebo, covars hx_smoke) of the same compound?
**A.** 0.55

**Q.** What about the “RR (relative risk for RMI)” value (CYBA hCV2038, Min Hom(AA) stratum, Statin vs Placebo, covars hx_smoke) of the same compound?
**A.** 1.38

**Q.** And the “RR (relative risk for RMI)” value (CYBA hCV2038, Statin stratum, het(AG) vs. ref(GG), covars hx_smoke)?
**A.** 1.40

**Q.** And the “RR (relative risk for RMI)” value (CYBA hCV2038, Statin stratum, hom(AA) vs. ref(GG), covars hx_smoke)?
**A.** 2.02

**Q.** And the “RR (relative risk for RMI)” value (EDG3 hCV25610470, Het(GA) stratum, Statin vs Placebo, covars HX_SMOKE)?
**A.** 0.22

**Q.** What about the “RR (relative risk for RMI)” value (EDG3 hCV25610470, Maj Hom(GG) stratum, Statin vs Placebo, covars HX_SMOKE) of the same compound?
**A.** 0.77

**Q.** And the “RR (relative risk for RMI)” value (EDG3 hCV25610470, Min Hom(AA) stratum, Statin vs Placebo, covars HX_SMOKE)?
**A.** 1.10

**Q.** What about the “RR (relative risk for RMI)” value (EDG3 hCV25610470, Statin stratum, het(GA) vs. ref(GG), covars HX_SMOKE) of the same compound?
**A.** 0.37

**Q.** And the “RR (relative risk for RMI)” value (F7 hCV783184, Het(TG) stratum, Statin vs Placebo)?
**A.** 1.10

**Q.** And the “RR (relative risk for RMI)” value (F7 hCV783184, Maj Hom(GG) stratum, Statin vs Placebo)?
**A.** 0.64

**Q.** What about the “RR (relative risk for RMI)” value (F7 hCV783184, Min Hom(TT) stratum, Statin vs Placebo) of the same compound?
**A.** 2.59

**Q.** And the “RR (relative risk for RMI)” value (F7 hCV783184, Statin stratum, het (TG) vs. ref(GG))?
**A.** 1.28

**Q.** And the “RR (relative risk for RMI)” value (F7 hCV783184, Statin stratum, hom(TT) vs. ref(GG))?
**A.** 1.65

**Q.** And the “RR (relative risk for RMI)” value (FCAR hCV7841642, Het(GA) stratum, Statin vs Placebo)?
**A.** 0.32

**Q.** And the “RR (relative risk for RMI)” value (FCAR hCV7841642, Maj Hom(GG) stratum, Statin vs Placebo)?
**A.** 0.82

**Q.** What about the “RR (relative risk for RMI)” value (FCAR hCV7841642, Min Hom(AA) stratum, Statin vs Placebo) of the same compound?
**A.** 1.33

**Q.** What about the “RR (relative risk for RMI)” value (FCAR hCV7841642, Statin stratum, het(GA) vs. ref(GG)) of the same compound?
**A.** 0.60

**Q.** And the “RR (relative risk for RMI)” value (FCAR hCV7841642, Statin stratum, hom (AA)vs. ref(GG))?
**A.** 1.38

**Q.** What about the “RR (relative risk for RMI)” value (FN1 hCV9506149, Het(TA) stratum, Statin vs Placebo) of the same compound?
**A.** 0.90

**Q.** And the “RR (relative risk for RMI)” value (FN1 hCV9506149, Maj Hom(AA) stratum, Statin vs Placebo)?
**A.** 0.58

**Q.** What about the “RR (relative risk for RMI)” value (FN1 hCV9506149, Min Hom(TT) stratum, Statin vs Placebo) of the same compound?
**A.** 1.10

**Q.** And the “RR (relative risk for RMI)” value (FN1 hCV9506149, Statin stratum, het(TA) vs. ref(AA))?
**A.** 1.15

**Q.** What about the “RR (relative risk for RMI)” value (FN1 hCV9506149, Statin stratum, hom(TT) vs. ref(AA)) of the same compound?
**A.** 1.72

**Q.** What about the “RR (relative risk for RMI)” value (HLA-DPB1 hCV8851085, Het(GA) stratum, Statin vs Placebo, covars hx_smoke) of the same compound?
**A.** 0.87

**Q.** What about the “RR (relative risk for RMI)” value (HLA-DPB1 hCV8851085, Maj Hom(GG) stratum, Statin vs Placebo, covars hx_smoke) of the same compound?
**A.** 0.58

**Q.** And the “RR (relative risk for RMI)” value (HLA-DPB1 hCV8851085, Min Hom(AA) stratum, Statin vs Placebo, covars hx_smoke)?
**A.** 2.19

**Q.** What about the “RR (relative risk for RMI)” value (HLA-DPB1 hCV8851085, Statin stratum, het (GA)vs. ref(GG), covars hx_smoke) of the same compound?
**A.** 1.40

**Q.** What about the “RR (relative risk for RMI)” value (HLA-DPB1 hCV8851085, Statin stratum, hom(AA) vs. ref(GG), covars hx_smoke) of the same compound?
**A.** 1.97

**Q.** What about the “RR (relative risk for RMI)” value (HSPG2 hCV1603656, Het(TC) stratum, Statin vs Placebo, covars hx_smoke) of the same compound?
**A.** 0.42

**Q.** What about the “RR (relative risk for RMI)” value (HSPG2 hCV1603656, Maj Hom (CC) stratum, Statin vs Placebo, covars hx_smoke) of the same compound?
**A.** 0.80

**Q.** And the “RR (relative risk for RMI)” value (HSPG2 hCV1603656, Statin stratum, het (TC)vs. ref(CC), covars hx_smoke)?
**A.** 0.65

**Q.** And the “RR (relative risk for RMI)” value (HSPG2 hCV1603692, Het(TC) stratum, Statin vs Placebo, covars none)?
**A.** 0.37

**Q.** What about the “RR (relative risk for RMI)” value (HSPG2 hCV1603692, Maj Hom (CC) stratum, Statin vs Placebo, covars none) of the same compound?
**A.** 0.79

**Q.** And the “RR (relative risk for RMI)” value (HSPG2 hCV1603692, Statin stratum, het (TC)vs. ref(CC), covars none)?
**A.** 0.65

**Q.** And the “RR (relative risk for RMI)” value (HSPG2 hCV1603697, Het(TC) stratum, Statin vs Placebo, covars none)?
**A.** 0.37

**Q.** What about the “RR (relative risk for RMI)” value (HSPG2 hCV1603697, Maj Hom (CC) stratum, Statin vs Placebo, covars none) of the same compound?
**A.** 0.80

**Q.** What about the “RR (relative risk for RMI)” value (HSPG2 hCV1603697, Statin stratum, het (TC)vs. ref(CC), covars none) of the same compound?
**A.** 0.65

Source: patent US9932637B2, “Genetic polymorphisms associated with cardiovascular disorders and drug response, methods of detection and uses thereof” (CELERA CORPORATION, priority 2003, dated 2018)
